In test [1] the test system is AR 1.0 cells. The experiment in a line: Potentiation index with doxorubicin titration. The settings on record: for Potentiation Index at RMA concentration 50 nM: Table C1, RMA 50 nM; for Potentiation Index at RMA concentration 20 nM: Table C1, RMA 20 nM. It is filed as cell-based, mouse. The essentials:
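Doxorubicin IC50 in AR 1.0 cells (MDR subline of EMT6 mouse mammary carcinoma) determined by sulphorhodamine B after 4-day culture across 0.263 nM-17.24 μM, with and without a fixed dose of test compound; their ratio gives the PI.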

For test [2], the system named is H69/LX4 cells. Description: Potentiation of toxicity of various cytotoxic agents, H69/LX4 cell line. Particulars: for Potentiation Index at RMA concentration 10 nM: RMA 10 nM; for Potentiation Index at RMA concentration 30 nM: RMA 30 nM; for Potentiation Index at RMA concentration 50 nM: RMA 50 nM. It is filed as cell-based. Here is the method: (§1) (b) Cells were cultured for four days with a titration of doxorubicin (0.263 nM-17.24 μM) in the presence of a fixed concentration of each compound. Proliferation was quantified as described by Skehen et al, loc cit. The IC50 (concentration required to reduce proliferation to 50% of the untreated controls) for doxorubicin alone and with each compound were derived and used to calculate the potentiation index (PI): [formula]
(§2) The potentiation indices of a selection of compounds using a variety of cell lines and a variety of cytotoxics other than doxorubicin were measured following the protocol described above for doxorubicin, and the results are shown in Table D.

Test [3] has as its system AR 1.0 cells. Description: Drug accumulation assay: daunorubicin accumulation in AR 1.0 cells. It is filed as cell-based. The settings on record: Mus musculus, 100% = accumulation with verapamil 100 μM, 1 hr, 37° C. In outline:
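Daunorubicin accumulation was measured in cells plated 48 h beforehand. These were AR 1.0 cells, an MDR-resistant derivative of mouse EMT6 mammary carcinoma, cultured at 37 °C in 5% CO2 in RPMI 1640 plus 10% foetal calf serum and 2 mM glutamine.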

In test [4] the test system is 2780AD cells. The experiment in a line: Potentiation of toxicity of various cytotoxic agents, 2780AD cell line. Format: cell-based. The settings on record: Taxol; for Potentiation Index at RMA concentration 10 nM: RMA 10 nM; for Potentiation Index at RMA concentration 30 nM: RMA 30 nM; for Potentiation Index at RMA concentration 50 nM: RMA 50 nM. Here is the method:
as §1, §2

Test [5] relates to AR 1.0 cells. The experiment in a line: Potentiation of toxicity of various cytotoxic agents, AR 1.0 cell line. Format: cell-based, mouse. The settings on record: Etoposide. Here is the method:
The EMT6 mouse mammary carcinoma cell line and the MDR resistant subline AR 1.0 were cultured in RPMI 1640 medium containing 10% foetal calf serum and 2 mM glutamine at 37° C. in 5% CO2. Cells were passaged between 1 in 200 and 1 in 2000 in the case of the parental cell line and between 1 in 20 and 1 in 200 in the case of the MDR resistant subline, after trypsinisation (0.25% trypsin, 0.2 gl^-1, EDTA).
as §1, §2

In test [6] the test system is AR 1.0 cells. The experiment in a line: Potentiation of doxorubicin toxicity: proliferation assay (sulphorhodamine B). Format: cell-based, mouse. The settings on record: Mus musculus, 96 h; compound alone; four day proliferation; read-out: Compound Toxicity (IC50). The source says:
(a) Selected compounds of formula (I) were examined for their ability to potentiate the toxicity of doxorubicin in AR 1.0 cells.

What is called IC50 is the midpoint of a concentration-inhibition curve. Regarding `COc1cc2c(cc1OC)CN(CCc1ccc(NC(=O)c3cc(N(C)C)ccc3NC(=O)c3cnc4ccccc4n3)cc1)CC2` [compound 9596, Quinoxaline-2-carboxylic acid (2-{4-[2-(6,7-dimethoxy-3,4-dihydro-1H-isoquinolin-2-yl)-ethyl]-phenylcarbamoyl}-4-dimethylamino-phenyl)-amide], the “Potentiation Index at RMA concentration 10 nM” value in test [1] (Table C1, RMA 10 nM) is listed as 2.68; in test [2] (Vincristine), 1; in test [4], 3.5. In addition, the “Potentiation Index at RMA concentration 30 nM” value in test [1] (Table C1, RMA 30 nM) is recorded as 44; in test [2] (Vincristine), 2; in test [4], 160. Further, the “Potentiation Index at RMA concentration 50 nM” value in test [1] is given as 131; in test [2] (Vincristine), 158; in test [4], 743. In addition, in test [1] (Table C1, RMA 100 nM), the “Potentiation Index at RMA concentration 100 nM” value worked out at 354. In test [3], this molecule displayed an IC50 of 0.132 µM.
`COc1cc2c(cc1OC)CN(CCc1ccc(NC(=O)c3cc(OC)c(OC)cc3NC(=O)c3cnc4ccccc4c3)cc1)CC2` [compound 9576, Quinoline-3-carboxylic acid (2-{4-[2-(6,7-dimethoxy-3,4-dihydro-1H-isoquinolin-2-yl)-ethyl]-phenylcarbamoyl}-4,5-dimethoxy-phenyl)-amide]: the “Potentiation Index at RMA concentration 10 nM” value in test [5] (RMA 10 nM) is reported as 26; in test [1] (Table C2, RMA 10 nM) it was 78. The “Potentiation Index at RMA concentration 30 nM” value in test [5] (RMA 30 nM) was determined as 45; in test [1] (Table C2, RMA 30 nM) it was 225. Moreover, the “Potentiation Index at RMA concentration 50 nM” value in test [5] (RMA 50 nM) is recorded as 51. Further, the “Potentiation Index at RMA concentration 100 nM” value in test [1] (Table C2, RMA 100 nM) amounted to 280. Moreover, the IC50 in test [3] was 0.064 µM; in test [6] it was 0.93 µM.
For the molecule `COc1ccc(CN(C)CCc2ccc(NC(=O)c3ccccc3NC(=O)c3cnc4ccccc4c3)cc2)cc1OC` [compound 9613, Quinoline-3-carboxylic acid [2-(4-{2-[(3,4-dimethoxy-benzyl)-methyl-amino]-ethyl}-phenylcarbamoyl)-phenyl]-amide], the “Potentiation Index at RMA concentration 10 nM” value in test [1] (Table C1, RMA 10 nM) turned out to be 3; in test [2] (Taxol), 2.2. In addition, the “Potentiation Index at RMA concentration 30 nM” value in test [1] (Table C1, RMA 30 nM) is given as 35; in test [2] (Taxol), 236. Further, the “Potentiation Index at RMA concentration 50 nM” value in test [1] was 97; in test [2] (Taxol), 877. Also, the “Potentiation Index at RMA concentration 100 nM” value in test [1] (Table C1, RMA 100 nM) turned out to be 168. Further, the IC50 in test [3] amounted to 0.098 µM.
As to `COc1cc2c(cc1OC)CN(CCc1ccc(NC(=O)c3c(C)csc3NC(=O)c3cnc4ccccc4c3)cc1)CC2` [compound 9609, Quinoline-3-carboxylic acid (3-{4-[2-(6,7-dimethoxy-3,4-dihydro-1H-isoquinolin-2-yl)-ethyl]-phenylcarbamoyl}-4-methyl-thiophen-2-yl)-amide], the “Potentiation Index at RMA concentration 10 nM” value in test [1] (Table C1, RMA 10 nM) was 1.4; in test [2] (Taxol) it was 1. Also, the “Potentiation Index at RMA concentration 20 nM” value in test [1] was 3.4. Also, the “Potentiation Index at RMA concentration 30 nM” value in test [1] (Table C1, RMA 30 nM) was determined as 7.4; in test [2] (Taxol), 3. Further, the “Potentiation Index at RMA concentration 50 nM” value is on record as 19 in test [1] and 9 in test [2] (Taxol). Further, in test [1] (Table C1, RMA 100 nM), the “Potentiation Index at RMA concentration 100 nM” value came out at 68. This molecule also showed a concentration for half-maximal inhibition (IC50) in test [3] of 0.431 µM.
As to `COc1ccc(CN(C)CCc2ccc(NC(=O)c3ccccc3NC(=O)c3cnc4ccccc4n3)cc2)cc1OC` [compound 9612, Quinoxaline-2-carboxylic acid [2-(4-{2-[(3,4-dimethoxy-benzyl)-methyl-amino]-ethyl}-phenylcarbamoyl)-phenyl]-amide], the “Potentiation Index at RMA concentration 10 nM” value was found to be 11 in test [1] (Table C1, RMA 10 nM) and 51 in test [2] (Taxol). The “Potentiation Index at RMA concentration 30 nM” value worked out at 95 in test [1] (Table C1, RMA 30 nM) and 894 in test [2] (Taxol). The “Potentiation Index at RMA concentration 50 nM” value in test [1] is on record as 149; in test [2] (Taxol), 1329. Moreover, in test [1] (Table C1, RMA 100 nM), the “Potentiation Index at RMA concentration 100 nM” value is 171. In test [3], this molecule registered a 50% inhibitory concentration (IC50) of 0.087 µM.
On to `COc1ccc(CN2CCc3ccc(NC(=O)c4ccccc4NC(=O)c4cnc5ccccc5n4)cc3C2)cc1OC` [compound 9614, Quinoxaline-2-carboxylic acid {2-[2-(3,4-dimethoxy-benzyl)-1,2,3,4-tetrahydro-isoquinolin-7-ylcarbamoyl]-phenyl}-amide], for which the “Potentiation Index at RMA concentration 10 nM” value in test [1] (Table C1, RMA 10 nM) is listed as 2. Also, the “Potentiation Index at RMA concentration 30 nM” value in test [1] (Table C1, RMA 30 nM) is reported as 9; in test [2] (Taxol), 1.1. Also, the “Potentiation Index at RMA concentration 50 nM” value in test [1] is 32; in test [2] (Taxol), 11. Besides, in test [1] (Table C1, RMA 100 nM), the “Potentiation Index at RMA concentration 100 nM” value stood at 52. In test [3], this molecule had an IC50 of 0.278 µM.
As for `COc1cc2c(cc1OC)CN(CCc1ccc(NC(=O)c3sccc3NC(=O)c3cnc4ccccc4n3)cc1)CC2` [compound 9597, Quinoxaline-2-carboxylic acid (2-{4-[2-(6,7-dimethoxy-3,4-dihydro-1H-isoquinolin-2-yl)-ethyl]-phenylcarbamoyl}-thiophen-3-yl)-amide], the “Potentiation Index at RMA concentration 10 nM” value is recorded as 80 in test [1] (Table C1, RMA 10 nM); 1 in test [2] (Vincristine); 110 in test [4]. The “Potentiation Index at RMA concentration 30 nM” value in test [1] (Table C1, RMA 30 nM) is 382; in test [2] (Vincristine) it was 41; in test [4] it was 1427. For the same molecule, the “Potentiation Index at RMA concentration 50 nM” value in test [1] came to 551; in test [2] (Vincristine), 44; in test [4] it was 2070. In addition, the “Potentiation Index at RMA concentration 100 nM” value in test [1] (Table C1, RMA 100 nM) is reported as 878. The molecule further registered an IC50 in test [3] of 0.087 µM.
`COc1cc2c(cc1OC)CN(CCc1ccc(NC(=O)c3c(C)csc3NC(=O)c3cnc4ccccc4n3)cc1)CC2` [compound 9608, Quinoxaline-2-carboxylic acid (3-{4-[2-(6,7-dimethoxy-3,4-dihydro-1H-isoquinolin-2-yl)-ethyl]-phenylcarbamoyl}-4-methyl-thiophen-2-yl)-amide]: the “Potentiation Index at RMA concentration 10 nM” value in test [1] (Table C1, RMA 10 nM) amounted to 6.7. Besides, in test [1], the “Potentiation Index at RMA concentration 20 nM” value came to 31 and the “Potentiation Index at RMA concentration 50 nM” value stood at 118. In addition, the “Potentiation Index at RMA concentration 30 nM” value in test [1] (Table C1, RMA 30 nM) stood at 60. Further, the “Potentiation Index at RMA concentration 100 nM” value in test [1] (Table C1, RMA 100 nM) turned out to be 178. For the same molecule, in test [2] (Taxol), the “Potentiation Index at RMA concentration 10 nM” value came to 1.6, the “Potentiation Index at RMA concentration 30 nM” value worked out at 17 and the “Potentiation Index at RMA concentration 50 nM” value was 130. In test [3], this molecule had a 50% inhibitory concentration (IC50) of 0.224 µM.

The values above are taken from patent US6218393A, “Anthranilic acid derivatives as multi drug resistance modulators” (priority 1997, dated 2001).
